Data as given in ChEMBL document CHEMBL3352746, “Synthesis and anticancer activity of quinopimaric and maleopimaric acids’ derivatives” (Bioorg Med Chem, 2014).
Activity calls are given as the source filed them. No cut-off for these calls is given here.

Experiments:
Assay type in all cases: functional
[1] = (§1) Cytotoxicity against human NCI60 cells assessed as cell growth at 10 uM; settings: read-out: Activity
RPMI-8226 = test: Cytotoxicity against human RPMI8226 cells assessed as cell growth at 10 uM; settings: read-out: Activity
T47D = test: Cytotoxicity against human T47D cells assessed as cell growth at 10 uM; settings: read-out: Activity
HCC 2998 = test: Cytotoxicity against human HCC2998 cells assessed as cell growth at 10 uM; settings: read-out: Activity
NCI60 = test: as §1
[2] = Cytotoxicity against human HL60 cells assessed as cell growth at 10 uM; settings: HL-60, read-out: Activity
SR = test: Cytotoxicity against human SR cells assessed as cell growth at 10 uM; settings: read-out: Activity
TK-10 = test: Cytotoxicity against human TK10 cells assessed as cell growth at 10 uM; settings: read-out: Activity

Row | SMILES | growth at 10 µM [1] | also measured
1 | COC(=O)[C@]1(C)CCC[C@]2(C)[C@H]3C[C@@H]4[C@H]5[C@@H]6Cc7[nH]c(=S)[nH]c7[C@H]5[C@@]3(CC[C@H]21)CC4(C(C)C)O6 | > 32% | –
2 | COC(=O)CCNC(=O)[C@]1(C)CCC[C@]2(C)[C@H]3C[C@H]4C(C(C)C)=C[C@]3(CC[C@H]21)[C@@H]1C(=O)CCC(=O)[C@@H]14 | > 32% | –
3 | COC(=O)[C@]1(C)CCC[C@]2(C)[C@H]3C[C@@H]4[C@H]5[C@@H]6CCC(=O)[C@H]5[C@@]3(CC[C@H]21)CC4(C(C)C)O6 | > 32% | –
4 | COC(=O)[C@]1(C)CCC[C@]2(C)[C@H]3C[C@H]4C(C(C)C)=C[C@]3(CC[C@H]21)[C@@H]1NC(=O)CC[C@H](O)[C@@H]14 | > 32% | –
5 | COC(=O)[C@]1(C)CCC[C@]2(C)[C@H]3C[C@@H]4[C@H]5[C@@H]6Cc7cnn(-c8ccccc8)c7[C@H]5[C@@]3(CC[C@H]21)CC4(C(C)C)O6 | > 32% | –
6 | COC(=O)[C@]1(C)CCC[C@]2(C)[C@H]3C[C@H]4C(C(C)C)=C[C@]3(CC[C@H]21)[C@@H]1/C(=N/O)CCC2(OCCO2)[C@@H]14 | – | growth at 10 µM (RPMI-8226): 3.94%; growth at 10 µM (T47D): 30.7%; growth at 10 µM (HCC 2998): -9.91%; Activity (NCI60): Active
7 | COC(=O)CCNC(=O)[C@]1(C)CCC[C@]2(C)[C@H]3C[C@H]4C(C(C)C)=C[C@]3(CC[C@H]21)[C@@H]1C(=O)CC[C@H](O)[C@@H]14 | > 32% | –
8 | COC(=O)[C@]1(C)CCC[C@]2(C)[C@H]3C[C@@H]4[C@H]5[C@@H]6CC/C(=N\O)[C@H]5[C@@]3(CC[C@H]21)CC4(C(C)C)O6 | > 32% | –
9 | COC(=O)[C@]1(C)CCC[C@]2(C)[C@H]3C[C@@H]4[C@H]5[C@@H]6Cc7c([nH]c8ccccc78)[C@H]5[C@@]3(CC[C@H]21)CC4(C(C)C)O6 | > 32% | –
10 | COC(=O)[C@]1(C)CCC[C@]2(C)[C@H]3C[C@H]4C(C(C)C)=C[C@]3(CC[C@H]21)[C@@H]1c2[nH]c3ccccc3c2-c2c([nH]c3ccccc23)[C@@H]14 | > 32% | –
11 | COC(=O)[C@]1(C)CCC[C@]2(C)[C@H]3C[C@H]4C5C[C@]3(CC[C@H]21)[C@@H]1/C(=N/O)CC[C@H](OC5(C)C)[C@@H]14 | > 32% | –
12 | COC(=O)[C@]1(C)CCC[C@]2(C)[C@H]3C[C@H]4C(C(C)C)=C[C@]3(CC[C@H]21)[C@@H]1/C(=N/O)CC[C@H](O)[C@@H]14 | > 32% | –
13 | COC(=O)[C@]1(C)CCC[C@]2(C)[C@H]3C[C@@H]4[C@H]5[C@@H]6Cc7cn[nH]c7[C@H]5[C@@]3(CC[C@H]21)CC4(C(C)C)O6 | > 32% | –
14 | COC(=O)[C@]1(C)CCC[C@]2(C)[C@H]3C[C@H]4C(C(C)C)=C[C@]3(CC[C@H]21)[C@@H]1c2[nH]c3ccccc3c2CC(=O)[C@@H]14 | > 32% | –
15 | COC(=O)[C@]1(C)CCC[C@]2(C)[C@H]3C[C@H]4C(C(C)C)=C[C@]3(CC[C@H]21)[C@@H]1C(=O)CCC2(OCCO2)[C@@H]14 | – | growth at 10 µM [2]: 28.7%; Activity (NCI60): Active; growth at 10 µM (SR): 31.2%
16 | COC(=O)[C@]1(C)CCC[C@]2(C)[C@H]3C[C@H]4C5C[C@]3(CC[C@H]21)[C@@H]1C(=O)CC[C@H](OC5(C)C)[C@@H]14 | > 32% | –
17 | CC(C)C1=C[C@@]23CC[C@@H]4[C@](C)(CCC[C@@]4(C)C(=O)O)[C@H]2C[C@@H]1[C@H]1C(=O)CCC(=O)[C@H]13 | – | growth at 10 µM (TK-10): 28.4%; Activity (NCI60): Active
18 | COC(=O)[C@]1(C)CCC[C@]2(C)[C@H]3C[C@H]4C(C(C)C)=C[C@]3(CC[C@H]21)[C@@H]1C(=O)[C@H]2O[C@H]2C(=O)[C@@H]14 | – | Activity (NCI60): Active; growth at 10 µM (SR): 8.07%
19 | COC(=O)[C@]1(C)CCC[C@]2(C)[C@H]3C[C@H]4C(C(C)C)=C[C@]3(CC[C@H]21)[C@@H]1NC(=O)CCC2(OCCO2)[C@@H]14 | > 32% | –
20 | COC(=O)C(CCSC)NC(=O)[C@]1(C)CCC[C@]2(C)[C@H]3C[C@H]4C(C(C)C)=C[C@]3(CC[C@H]21)[C@@H]1C(=O)CC[C@H](OC(=O)CCC(=O)O)[C@@H]14 (stereo not given in full) | > 32% | –
21 | COC(=O)[C@]1(C)CCC[C@@]2(C)[C@H]1CC[C@]13C=C(C(C)C)[C@H](C[C@H]21)C1=C3C(=O)C=CC1=O | – | Activity (NCI60): Active; growth at 10 µM (SR): 15.6%
22 | CC(C)C1=C[C@]23CC[C@@H]4[C@](C)(CCC[C@@]4(C)C(=O)O)[C@H]2C[C@H]1[C@H]1C(=O)OC(=O)[C@H]13 | > 32% | –
